Source: patent US20060252725A1, “Use of prebiotics for preventing or treating oxidation stress” (priority 2002, published 2006)

Tests used:
Assay type in all cases: in vivo, rat (Wistar-Han)
[1] = Plasma vitamin E concentration and vitamin E/triglycerides ratio in rats after 4 weeks of diet; details: diet for 4 weeks
Description: (§1) 40 weaned male rats of the Wistar-Han type (IFFA-CREDO; L'Arbresle, France) 6 week old and weighing approximately 150 g were used. The rats were placed in cages with a wire mesh back in a temperature-controlled room (22° C.) with day/night cycles of 12 hours. The animals were treated according to the recommendations of the INRA Ethics Committee, decree No. 87-848.
(§2) First of all the rats were fed following a semi-purified starch-based diet for 7 days: They were then randomly divided into 4 groups of 10 rats: one starch group (A), one fructose group (F), one starch+FOS group (A/FOS) and one fructose+FOS group (F/FOS). They then followed their appropriate diet for 4 weeks.
(§3) The food and distilled water were provided ad libitum. The composition of the food rations was as follows (in g/kg):
The FOS (Raftilose® P95) were obtained from ORAFTI, Thienen, Belgium. They were introduced into the food gradually in order to avoid diarrhoea which could occur in response to too rapid an administration of large quantities of this compound. Raftilose® P95 is a mixture of Glucosyl-(Fructosyl)n-Fructose (64%) and of (Fructosyl)m-Fructose (36%) with average degrees of polymerization of 4.8.
(§4) 4 days before sacrifice, the animals were housed individually in stainless steel cages with ad libitum access to the water and food. Urine-samples were recovered 24 hours before sacrifice in 50 ml graduated tubes, the volumes were precisely measured, the samples were then centrifuged and kept at −80° C. until analysis. At the time of sacrifice the rats were weighed, then anesthetized using sodium pentobarbital (intra-peritoneal injection at 40 mg/kg) and killed. […]
The plasma concentrations of vitamin E were determined by reversed-phase high performance liquid chromatography on a Kontron series 400 device (Kontron St Quentin en Yvelines, France) using a hexane extract. α-tocopherol acetate (Sigma) was added to the samples as internal control. […] The compounds were detected by UV (292 nm) then quantified with internal and external calibrations using control solutions.

lipid peroxidation [2] = assay: Plasma TBARS in rats after 4 weeks of diet
Description: as §1
as §2, with “weeks. […]” for “weeks.”
(§5) The FOS (Raftilose® P95) were obtained from ORAFTI, Thienen, Belgium. They were introduced into the food gradually in order to avoid diarrhoea which could occur in response to too rapid an administration of large quantities of this compound. […]
as §4, with “analysis.” for “analysis. At the time of sacrifice the rats were weighed, then anesthetized using sodium pentobarbital (intra-peritoneal injection at 40 mg/kg) and killed.”
(§6) The levels of plasma TBARS were determined by spectrofluorometry on an LS 5 device (Perkin Elmer, Norwalk, Conn., USA). […]

lipid peroxidation [3] = assay: Urinary TBARS in rats after 4 weeks of diet; details: diet for 4 weeks
Description: as §1
as §2, with “weeks. […]” for “weeks.”
as §5
as §4, with “analysis.” for “analysis. At the time of sacrifice the rats were weighed, then anesthetized using sodium pentobarbital (intra-peritoneal injection at 40 mg/kg) and killed.”
as §6

[4] = Plasma triglyceride concentration in rats after 4 weeks of diet; details: diet for 4 weeks, average of 10 animals ± standard deviation
Description: as §1, §2, §3, §5
as §4, with “analysis.” for “analysis. At the time of sacrifice the rats were weighed, then anesthetized using sodium pentobarbital (intra-peritoneal injection at 40 mg/kg) and killed.”

heart lipids = assay: Heart TBARS: susceptibility of heart lipids to FeSO4-ascorbate induced peroxidation; details: rats, diet for 4 weeks
Description: as §1
as §2, with “weeks. […]” for “weeks.”
as §5
as §4, with “analysis.” for “analysis. At the time of sacrifice the rats were weighed, then anesthetized using sodium pentobarbital (intra-peritoneal injection at 40 mg/kg) and killed.”
as §6

[5] = Fructose vs Starch group, Fructose+FOS vs Fructose group

For `O=C(CO)[C@@H](O)[C@H](O)[C@H](O)CO` [Fructose], the “Ratio Vitamin E/TG, effect of the diet” value ([1]; diet rich in fructose vs starch diet, supplementation with FOS) was “lowers the ratio Vitamin E/TG”, the Vitamin E/TG ([1]; plasma ratio, average of 10 animals ± standard deviation) was 2.68 ± 0.12 µg/µmol and the “Vitamin E” value ([1]; plasma, average of 10 animals ± standard deviation) was 9.74 ± 0.92 µg/mL. The “Plasma TBARS” value (lipid peroxidation [2]; diet ad libitum for 4 weeks, FOS 100 g/kg diet, sugar 650 or 550 g/kg, average of 10 animals ± standard deviation) was 2.14 ± 0.07 nmol/mL, the “Plasma TBARS, comparison between diet groups” value (lipid peroxidation [2]; diet for 4 weeks, Fructose vs Starch group, Fructose+FOS vs Fructose group) was “significantly higher” and the “Urinary TBARS, comparison between diet groups” value (lipid peroxidation [3]; [5]) was “significantly higher”. The “Urinary TBARS” value (lipid peroxidation [3]; urine of 24 hours, average of 10 animals ± standard deviation) was 21.97 ± 1.58 nmol/24 h, the Triglycerides (TG) [4] was 3.73 ± 0.45 mM and the “Heart TBARS, comparison between diet groups” value (heart lipids; [5]) was “significantly higher”. For the same compound, the “Heart TBARS” value (heart lipids; heart homogenate, FeSO4 (2 μmol/l)-ascorbate (50 μmol/l), 30 minutes at 37° C., average of 10 animals ± standard deviation) was 98.8 ± 6.5 nmol/g of fresh weight.
